The results in this text go back to patent US10533010B2, “Substituted indole Mcl-1 inhibitors” (Vanderbilt University, priority 2014, dated 2020).

In experiment [1] the target is Bcl-2 (residues 1-207 A96T,G110R, Δ35-91, replaced with Bcl-xL35-50) (Homo sapiens, UniProt P10415, A37E/DEL42-87/G36T/INS34DVEEN/P40E/P88T/P90S/P91E/V35R/V89E). In words: Fluorescence polarization anisotropy competition selectivity assay (FITC-Bak peptide) with Bcl-2. It is filed as binding. The conditions noted are these: Table 3; 40 nM Bcl-2, 10 nM FITC-Bak. The procedure: Compound affinity was measured using a fluorescence polarization anisotropy competition assay. Anisotropy measurements were carried out in 384-well, black, flat-bottom plates (Greiner Bio-one, Monroe, N.C., USA). The assay was run using either a fluorescein isothiocyanate-labeled BH3 peptide derived from Bak (FITC-AHx-[…]-NH2) or a fluorescein isothiocyanate-labeled BH3 peptide derived from Bim (FITC-AHx-[…]-NH2) that were purchased from GenScript (Piscataway, N.J.) at >95% purity and used without further purification. 10 nM FITC-Bak peptide and 15 nM recombinant Mcl-1 (residues 172-327) were added to assay buffer (3 mM dithiothreitol, 50 mM NaCl, 20 mM Tris, pH 7.5). The Bim based assay was run with 1 nM FITC-Bim peptide and 1.5 nM recombinant Mcl-1 (residues 172-327) added to assay buffer (20 mM TRIS pH 7.5, 50 mM NaCl, 3 mM DTT, 0.01% CHAPS). For selectivity assays, 40 nM Bcl-2 (residues 1-207^A96T,G110R, Δ35-91, replaced with Bcl-xL35-50) or 4 nM Bcl-xL (residues 1-209, loop 45-86 deleted) were incubated with 10 nM FITC-Bak in assay buffer.
Compounds are diluted in DMSO in a 10-point, 3-fold serial dilution scheme. For the FITC-BAK assay 2.5 uL compound is added to 47.5 μL of assay buffer containing FITC-Bak and protein, for a final DMSO concentration of 5% and a top concentration of 20 μM. […] […]. The plate was mixed and incubated for 90 minutes at room temperature. Anisotropy is measured at excitation wavelength 480 nm and emission wavelength 535 nm using an EnVision Multi-label plate reader (PerkinElmer, Wellesley, Mass., USA) or a BioTek Cytation 3 (BioTek, Winooski, Vt., USA). […] IC50 is converted to a binding dissociation constant (Ki value) according to the formula of Wang Z. FEBS Lett (1996) 3, 245.
In general terms: Fluorescence polarisation rises when a labelled molecule tumbles more slowly, as on binding a larger partner.

Experiment [2] has as its target recombinant Mcl-1 (residues 172-327) (Homo sapiens (Human), UniProt Q07820). In words: Fluorescence polarization anisotropy competition assay (FITC-Bak or FITC-Bim BH3 peptide) with Mcl-1. Type of experiment: binding. The conditions noted are these: Table 2; Ki bins given in nM; FITC-Bak or FITC-Bim peptide competition; Ki converted from IC50; read-out: Ki for Inhibition of Mcl-1.

The structures appear in SMILES notation. A value given as a limit tells only on which side of the number the result lay.

Chain of recombinant Mcl-1 (residues 172-327) (Q07820 172-327): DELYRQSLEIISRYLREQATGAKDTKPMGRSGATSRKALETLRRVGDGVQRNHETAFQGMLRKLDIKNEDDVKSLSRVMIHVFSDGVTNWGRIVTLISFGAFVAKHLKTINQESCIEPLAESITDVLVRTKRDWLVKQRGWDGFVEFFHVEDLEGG

One may read the Ki as a measure of affinity in units of concentration, obtained from inhibition or displacement. In experiment [1], `Cc1cc(OCCCc2c3n(c4c(-c5c(C)nn(C)c5C)c(Cl)ccc24)CCCN(c2cccc(C(=O)O)c2)C3=O)cc(C)c1Cl` [I-177, 3-(8-chloro-11-(3-(4-chloro-3,5-dimethylphenoxy)propyl)-1-oxo-7-(1,3,5-trimethyl-1H-pyrazol-4-yl)-4,5-dihydro-1H-[1,4]diazepino[1,2-a]indol-2(3H)-yl)benzoic acid] registered a Ki of 1900 nM.

Turning to `Cc1cc(OCCCc2c3n(c4c(-c5c(C)nn(C)c5C)c(Cl)ccc24)[C@H](C)CN(c2cccc(C(=O)O)c2)C3=O)cc(C)c1Cl` [I-171, (R)-3-(7-chloro-10-(3-(4-chloro-3,5-dimethylphenoxy)propyl)-4-methyl-1-oxo-6-(1,3,5-trimethyl-1H-pyrazol-4-yl)-3,4-dihydropyrazino[1,2-a]indol-2(1H)-yl)benzoic acid], the Ki in experiment [2] is less than 50 nM.

On to `Cc1cc(OCCCc2c(C(=O)N3CCC(CC(=O)O)CC3)[nH]c3c(-c4c(C)nn(C)c4C)cccc23)cc(C)c1Cl` [I-204, 2-(1-(3-(3-(4-chloro-3,5-dimethylphenoxy)propyl)-7-(1,3,5-trimethyl-1H-pyrazol-4-yl)-1H-indole-2-carbonyl)piperidin-4-yl)acetic acid], for which, in experiment [2], the Ki lay within 51 to 100 nM.

For `Cc1cc(OCCCc2c3n(c4c(-c5c(C)nn(C)c5C)c(Cl)ccc24)C[C@@H](C)NC3=O)cc(C)c1Cl` [I-109, (R)-7-chloro-10-(3-(4-chloro-3,5-dimethylphenoxy)propyl)-3-methyl-6-(1,3,5-trimethyl-1H-pyrazol-4-yl)-3,4-dihydropyrazino[1,2-a]indol-1(2H)-one], in experiment [2], the Ki is less than 50 nM.

Consider `Cc1cc(OCCCc2c3n(c4c(-c5c(C)nn(C)c5C)cccc24)CCN(Cc2cccc(-c4nnn[nH]4)c2)C3=O)cc(C)c1Cl` [I-85, 2-(3-(1H-tetrazol-5-yl)benzyl)-10-(3-(4-chloro-3,5-dimethylphenoxy)propyl)-6-(1,3,5-trimethyl-1H-pyrazol-4-yl)-3,4-dihydropyrazino[1,2-a]indol-1(2H)-one], for which the Ki in experiment [2] is less than 50 nM.

With `Cc1cc(OCCCc2c3n(c4c(-c5c(C)nn(C)c5C)c(Cl)ccc24)C[C@@H](C)N(c2ccc(C(=O)O)c4ncccc24)C3=O)cc(C)c1Cl` [I-158, (R)-5-(7-chloro-10-(3-(4-chloro-3,5-dimethylphenoxy)propyl)-3-methyl-1-oxo-6-(1,3,5-trimethyl-1H-pyrazol-4-yl)-3,4-dihydropyrazino[1,2-a]indol-2(1H)-yl)quinoline-8-carboxylic acid], in experiment [2], the Ki is less than 50 nM.

As for `Cc1cc(OCCCc2c(C(=O)N3CC(NC(=O)C(=O)O)C3)[nH]c3c(-c4c(C)nn(C)c4C)c(Cl)ccc23)cc(C)c1Cl` [I-323, 2-((1-(6-chloro-3-(3-(4-chloro-3,5-dimethylphenoxy)propyl)-7-(1,3,5-trimethyl-1H-pyrazol-4-yl)-1H-indole-2-carbonyl)azetidin-3-yl)amino)-2-oxoacetic acid], the Ki in experiment [2] is less than 50 nM.

Regarding `Cc1cc(OCCCc2c3n(c4c(-c5c(C)nn(C)c5C)c(Cl)ccc24)CCCN(c2cc(C(=O)O)cc(-c4ccncc4)c2)C3=O)cc(C)c1Cl` [I-231, 3-(8-chloro-11-(3-(4-chloro-3,5-dimethylphenoxy)propyl)-1-oxo-7-(1,3,5-trimethyl-1H-pyrazol-4-yl)-4,5-dihydro-1H-[1,4]diazepino[1,2-a]indol-2(3H)-yl)-5-(pyridin-4-yl)benzoic acid], in experiment [2], the Ki is less than 50 nM.

For `Cc1cc(OCCCc2c(C(=O)Nc3cccc(C(=O)O)c3)[nH]c3c(-c4c(C)nn(C)c4C)cccc23)cc(C)c1Cl` [I-196, 3-(3-(3-(4-chloro-3,5-dimethylphenoxy)propyl)-7-(1,3,5-trimethyl-1H-pyrazol-4-yl)-1H-indole-2-carboxamido)benzoic acid], in experiment [2], the Ki was less than 50 nM.

As to `Cc1cc(OCCCc2c3n(c4c(-c5c(C)nn(C)c5C)c(Cl)ccc24)CCCN(c2cc(C(=O)O)cc4[nH]ccc24)C3=O)cc(C)c1Cl` [I-252, 4-(8-chloro-11-(3-(4-chloro-3,5-dimethylphenoxy)propyl)-1-oxo-7-(1,3,5-trimethyl-1H-pyrazol-4-yl)-4,5-dihydro-1H-[1,4]diazepino[1,2-a]indol-2(3H)-yl)-1H-indole-6-carboxylic acid], the Ki in experiment [2] was less than 50 nM.

As for `Cc1cc(OCCCc2c(C(=O)Nc3cc(NC4CCOCC4)cc(C(=O)O)c3)[nH]c3c(-c4c(C)nn(C)c4C)c(Cl)ccc23)cc(C)c1Cl` [I-209, 3-(6-chloro-3-(3-(4-chloro-3,5-dimethylphenoxy)propyl)-7-(1,3,5-trimethyl-1H-pyrazol-4-yl)-1H-indole-2-carboxamido)-5-((tetrahydro-2H-pyran-4-yl)amino)benzoic acid], the Ki in experiment [2] is less than 50 nM.

Take `Cc1cc(OCCCc2c(C(=O)NCc3cccc(C(=O)O)c3)[nH]c3c(-c4c(CN5CCCC5)nn(C)c4C)cccc23)cc(C)c1Cl` [I-34, 3-((3-(3-(4-chloro-3,5-dimethylphenoxy)propyl)-7-(1,5-dimethyl-3-(pyrrolidin-1-ylmethyl)-1H-pyrazol-4-yl)-1H-indole-2-carboxamido)methyl)benzoic acid]: the Ki in experiment [2] is less than 50 nM.

As to `Cc1cc(OCCCc2c3n(c4c(-c5c(C)nn(C)c5C)c(Cl)ccc24)CCCN(c2cc(CN4CCCC4)cc(C(=O)O)c2)C3=O)cc(C)c1Cl` [I-225, 3-(8-chloro-11-(3-(4-chloro-3,5-dimethylphenoxy)propyl)-1-oxo-7-(1,3,5-trimethyl-1H-pyrazol-4-yl)-4,5-dihydro-1H-[1,4]diazepino[1,2-a]indol-2(3H)-yl)-5-(pyrrolidin-1-ylmethyl)benzoic acid], the Ki in experiment [2] is less than 50 nM.

As for `Cc1cc(OCCCc2c(C(=O)NCC(=O)NCC(=O)O)[nH]c3c(-c4c(C)nn(C)c4C)cccc23)cc(C)c1Cl` [I-290, (3-(3-(4-chloro-3,5-dimethylphenoxy)propyl)-7-(1,3,5-trimethyl-1H-pyrazol-4-yl)-1H-indole-2-carbonyl)glycylglycine], the Ki in experiment [2] was less than 50 nM.

`Cc1cc(OCCCc2c(C(=O)NCCC(=O)NS(=O)(=O)c3ccc([N+](=O)[O-])cc3)[nH]c3c(-c4c(C)n[nH]c4C)cccc23)cc(C)c1Cl` [I-24, 3-(3-(4-chloro-3,5-dimethylphenoxy)propyl)-7-(3,5-dimethyl-1H-pyrazol-4-yl)-N-(3-((4-nitrophenyl)sulfonamido)-3-oxopropyl)-1H-indole-2-carboxamide]: the Ki in experiment [2] was 101 to 299 nM.

In the case of `Cc1cc(OCCCc2c3n(c4c(-c5c(C)nn(C)c5C)c(Cl)ccc24)C[C@H](C)N(Cc2ccc(C(=O)O)cn2)C3=O)cc(C)c1Cl` [I-137, (S)-6-((7-chloro-10-(3-(4-chloro-3,5-dimethylphenoxy)propyl)-3-methyl-1-oxo-6-(1,3,5-trimethyl-1H-pyrazol-4-yl)-3,4-dihydropyrazino[1,2-a]indol-2(1H)-yl)methyl)nicotinic acid], in experiment [2], the Ki is less than 50 nM.

Take `Cc1cc(OCCCc2c3n(c4c(-c5c(C)nn(C)c5C)c(Cl)ccc24)C(C)[C@@H](C)N(Cc2ccc(C(=O)O)o2)C3=O)cc(C)c1Cl` (stereo partly drawn) [I-147, 5-(((3R)-7-chloro-10-(3-(4-chloro-3,5-dimethylphenoxy)propyl)-3,4-dimethyl-1-oxo-6-(1,3,5-trimethyl-1H-pyrazol-4-yl)-3,4-dihydropyrazino[1,2-a]indol-2(1H)-yl)methyl)furan-2-carboxylic acid]: in experiment [2], the inhibition constant Ki is less than 50 nM.

Consider `Cc1cc(OCCCc2c(C(=O)Nc3cccc(C(=O)NS(=O)(=O)c4ccc([N+](=O)[O-])cc4)c3)[nH]c3c(-c4cccnc4C)cccc23)cc(C)c1Cl` [I-68, 3-(3-(4-chloro-3,5-dimethylphenoxy)propyl)-7-(2-methylpyridin-3-yl)-N-(3-(((4-nitrophenyl)sulfonyl)carbamoyl)phenyl)-1H-indole-2-carboxamide], for which the Ki in experiment [2] is 51 to 100 nM.

In the case of `Cc1cc(OCCCc2c(C(=O)N3CCC[C@H]3C(=O)O)[nH]c3c(-c4c(C)nn(C)c4C)c(Cl)ccc23)cc(C)c1Cl` [I-337, (6-chloro-3-(3-(4-chloro-3,5-dimethylphenoxy)propyl)-7-(1,3,5-trimethyl-1H-pyrazol-4-yl)-1H-indole-2-carbonyl)-L-proline], in experiment [2], the Ki was less than 50 nM.
